What all share (test): NCI-60 cell line screen, 48 h
Assay [1] has as its system MDA-MB-231 breast.
The test system of assay [2] is CAKI-1 renal.
Assay [3] deals with SK-MEL-2 melanoma.
Assay [4] has as its system A549 NSCLC.
Assay [5] deals with RPMI-8226 leukemia.
Assay [6] deals with SN12C renal.
Assay [7] relates to COLO 205 colon.
The subject of assay [8] is CCRF-CEM leukemia.
Assay [9] has as its system K-562 leukemia.
The test system of assay [10] is SK-MEL-5 melanoma.
Assay [11] has as its system HT29 colon.
Assay [12] concerns OVCAR-8 ovarian.
Assay [13] has as its system U251 CNS.
Assay [14] concerns UACC-257 melanoma.
Assay [15] concerns MALME-3M melanoma.

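Each compound was tested at five concentrations against cells in 96-well plates for 48 hours. TGI is the concentration that stops growth completely.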 A value given as a limit tells only on which side of the number the result lay.

Turning to `COc1ccc(/C(Br)=C2\OC(=O)c3ccccc32)cc1`, the TGI in assay [1], in assay [2], in assay [3], in assay [4], in [5] and in assay [6] was > 10 µM in each case. Moreover, the TGI in [7], in [8], in assay [9], in assay [10], in assay [11] and in [12] was > 10 µM throughout. In addition, the TGI in [13] and in [14] was > 10 µM in each case.

For `CCC(=O)C(CCN1CCC2(CCCc3ccccc32)CC1)(c1ccccc1)c1ccccc1`, the TGI amounted to 3.76 µM in assay [15]; 5.78 µM in assay [1]; 14.5 µM in assay [2]; 4.34 µM in assay [3]; 15.6 µM in [4]; 2.35 µM in assay [5]. For the same molecule, the TGI in assay [6] is 10.2 µM; in assay [7], 2.91 µM; in assay [8], > 100 µM; in assay [10] it was 2.9 µM; in assay [11], 6.01 µM; in [12], 14 µM. The values for the TGI in assay [13] and in assay [14] were 14 µM and 5.51 µM, respectively.

With `CCOC(=O)CNC(=O)C(CSC(=O)N(O)c1ccc(Cl)cc1)NC(=O)CCC(N)C(=O)OCC` (centres undefined), the TGI in assay [1] was > 50 µM; in assay [2], > 50 µM; in assay [3] it was > 50 µM; in assay [4] it was > 50 µM; in [5], 46 µM; in [6], > 50 µM. For the same molecule, the TGI in [7], in assay [8], in assay [9], in assay [10], in assay [11] and in assay [12] was > 50 µM in each case. Moreover, the TGI in assay [13] and in [14] was > 50 µM in each case.

As for `[N-]=[N+]=NI1OC(=O)c2ccccc21`, the TGI is > 100 µM in assay [1]; 46.9 µM in assay [2]; > 100 µM in assay [3]; > 100 µM in [4]; 65.7 µM in [5]; > 100 µM in [6]. The TGI in [7], in assay [8], in assay [9], in assay [11], in assay [12] and in [13] was > 100 µM throughout. Also, the TGI in assay [14] is > 100 µM.

With `N#Cc1nc(-c2ccco2)oc1N`, the TGI in [15], in assay [1], in [2], in [4], in assay [5] and in assay [7] was > 10 µM in each case. In addition, the TGI in assay [8], in assay [9], in assay [10], in assay [11], in assay [12] and in [14] was > 10 µM in each case.

With `CC(=O)Oc1ccc(/C=C/C(=O)OCCCOC(=O)/C=C/c2ccc(OC(C)=O)c(OC(C)=O)c2)cc1OC(C)=O`, the TGI in assay [15], in assay [1], in assay [2], in assay [3], in [4] and in assay [5] was > 100 µM in each case. The TGI in [6], in assay [7], in [9], in [10], in assay [11] and in assay [12] was > 100 µM in each case. In addition, the TGI in assay [13] and in assay [14] was > 100 µM in each case.

Turning to `COC(=O)C(CCSC)NC(=O)CNC(=O)CSc1nnc(COc2ccc(Cl)cc2)n1-c1ccccc1` (centres undefined), the TGI in assay [15] was 32.7 µM; in assay [1], 29.4 µM; in assay [3], 28.7 µM; in [4] it was > 100 µM; in assay [5] it was 59.7 µM; in assay [6], 32.4 µM. Further, the TGI in [7] is 33.6 µM; in [8], 26.1 µM; in assay [9], > 100 µM; in assay [10] it was 31.4 µM; in assay [11], 31.5 µM; in assay [13] it was 31 µM. Further, the TGI in [14] turned out to be 32.2 µM.

`O=C(NC1CCN(Cc2ccccc2)CC1)c1ccc(I)cc1`: the TGI in [1], in assay [2], in assay [3], in assay [4], in assay [5] and in assay [6] was > 100 µM each time. Besides, the TGI in assay [7], in [8], in assay [9], in assay [10], in [11] and in assay [12] was > 100 µM in each case. Further, the TGI in assay [13] and in assay [14] was > 100 µM throughout.

For the molecule `CC(C)(C)C1=CC(C)(n2[nH]c(=O)n(-c3ccccc3)c2=O)C=C(C(C)(C)C)C1=O`, the TGI in assay [15], in assay [1], in assay [2], in assay [3], in assay [4] and in assay [5] was > 100 µM throughout. For the same molecule, the TGI in assay [6], in assay [7], in [9], in [10], in assay [11] and in assay [12] was > 100 µM each time. In addition, the TGI in assay [13] and in assay [14] was > 100 µM throughout.

On to `Cc1nc2ccc(C(F)(F)F)cc2nc1NCc1ccc(Cl)c(Cl)c1`, for which the TGI in assay [15] came to 32 µM; in assay [1] it was 29.4 µM; in assay [2], 33.8 µM; in [4], 30.6 µM; in assay [5], 38.9 µM; in [6] it was 35.3 µM. The TGI in assay [7] came out at 30.6 µM; in assay [8] it was 36.6 µM; in [9], 42.2 µM; in [10], 33.8 µM; in [11], 28.2 µM; in assay [12], 33.2 µM. Further, the TGI in assay [13] was found to be 30.6 µM; in [14], 30.1 µM.

As to `O=c1[nH]nc(Cc2ccccc2)n1C1CCCC1`, the TGI in [15], in assay [1], in [2], in [4], in assay [5] and in [6] was > 100 µM each time. Further, the TGI in [7], in assay [8], in assay [9], in assay [10], in assay [11] and in [12] was > 100 µM in each case. The TGI in assay [13] and in [14] was > 100 µM in each case.

With `CC1(C)OC(=S)N(c2ccccc2)C12C=Cc1ccccc1O2` (centres undefined), the TGI in [1], in assay [2], in assay [3], in [4], in assay [5] and in [6] was > 100 µM each time. In addition, the TGI in assay [7], in [8], in assay [9], in [10], in assay [11] and in assay [12] was > 100 µM in each case. Moreover, the TGI in [13] and in [14] was > 100 µM throughout.

For the molecule `CCCCc1ccc(-n2sc3ncc(C)cc3c2=O)cc1`, the TGI is 90.1 µM in assay [15]; 44.5 µM in assay [1]; > 100 µM in assay [3]; 78.9 µM in [4]; 99 µM in [5]; 47.2 µM in assay [6]. Also, the TGI in [7] was 46.3 µM; in assay [8] it was 50.5 µM; in assay [9], > 100 µM; in [10] it was 46.2 µM; in [12] it was 51.1 µM; in assay [13], > 100 µM.

For `CC1(C)CC[C@]2(C)CC[C@]3(C)C(=CC[C@@H]4[C@@]5(C)CCC(=O)C(C)(C)[C@@H]5[C@H](O)C[C@]43C)[C@@H]2C1`, the TGI amounted to 31.6 µM in assay [15]; 23.7 µM in [1]; 33.7 µM in assay [2]; 30 µM in assay [3]; 54.3 µM in [4]; 53.2 µM in [5]. Further, the TGI in assay [6] is 29.5 µM; in [7], 32 µM; in [8], > 100 µM; in assay [10], 31.5 µM; in assay [11], 31.8 µM; in assay [12], 34.3 µM. Further, the TGI is 30.5 µM in assay [13] and 32.3 µM in assay [14].

`COC(=O)c1cc2c(c3c1CC(Cc1ccccc1)C3=O)CCC2` (centres undefined): the TGI in [15], in assay [1], in [4], in assay [5], in assay [6] and in assay [7] was > 100 µM in each case. Besides, the TGI in assay [8], in assay [9], in assay [10], in [11], in [12] and in [13] was > 100 µM throughout. Further, the TGI in assay [14] is > 100 µM.

`O=[N+]([O-])c1ccc(-c2nc3ccc(Cl)cc3[nH]2)cc1`: the TGI in [15], in [1], in [2], in [4], in assay [5] and in assay [6] was > 100 µM each time. Further, the TGI in [7], in assay [10], in [11], in [12] and in [14] was > 100 µM throughout.

On to `CC1=NN(c2nc(N)nc(/C(C#N)=C\c3csc([N+](=O)[O-])c3)n2)C(C)(C)C1`, for which the TGI in assay [1] was 64 µM; in assay [2] it was > 100 µM; in assay [3] it was 81 µM; in [5], > 100 µM; in [8], > 100 µM; in assay [9] it was > 100 µM. The TGI in [10] is > 100 µM; in assay [11] it was > 100 µM; in [12], 64.7 µM; in [13], 39.4 µM; in assay [14], > 100 µM.

Turning to `Cc1cn(CCCCC2=NCCCN2)c(=O)[nH]c1=O`, the TGI was > 42 µM in assay [1]; > 23.4 µM in assay [2]; > 35.9 µM in assay [3]; > 54.4 µM in [4]; > 100 µM in assay [5]; > 100 µM in assay [6]. For the same molecule, the TGI is > 43.4 µM in assay [7]; > 23 µM in [8]; > 37.2 µM in assay [9]; > 38.1 µM in assay [10]; > 23.1 µM in assay [11]; > 28.2 µM in [12]. In addition, the TGI is > 46.4 µM in [13] and > 33.9 µM in assay [14].

`CC1(C)OCC([C@H]2O[C@@H](CC(=S)NCCCCCCCCCCCCNC(=S)C[C@H]3O[C@@H](C4COC(C)(C)O4)[C@H]4OC(C)(C)O[C@H]43)[C@H]3OC(C)(C)O[C@H]32)O1` (some centres undefined): the TGI in assay [1] is > 100 µM; in assay [2], > 100 µM; in assay [3] it was > 100 µM; in [4] it was > 100 µM; in assay [5], 68.8 µM; in assay [9], > 100 µM. For the same molecule, the TGI in assay [10] was 92.4 µM; in assay [11], > 100 µM; in assay [12], > 100 µM; in assay [13], > 100 µM; in assay [14] it was > 100 µM.

Turning to `Nc1ncnc2oc(C3OC(COC(=O)c4ccccc4)C(OC(=O)c4ccccc4)C3OC(=O)c3ccccc3)nc12` (centres undefined), the TGI in assay [15], in assay [1], in assay [2], in [4], in [5] and in assay [6] was > 100 µM each time. Also, the TGI in assay [7], in assay [8], in assay [9], in [10], in assay [11] and in assay [12] was > 100 µM in each case. For the same molecule, the TGI in [13] and in assay [14] was > 100 µM each time.
